Results from patent publication US9555038B2, “Heterocycle-substituted tetracyclic compounds and methods of use thereof for the treatment of viral diseases” (Merck Sharp & Dohme Corp., priority 2013, dated 2017).
Like-named read-outs stand apart in the source and are kept apart here.

Key:
HCV replicon 2B = assay: Cell-based HCV Replicon Assay A, replicon 2B
How it was run: (§1)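 Replicon cells seeded at 2000 cells/well with compound, 10 serial dilutions starting at 333.3 nM to 1.667 nM, 0.5% DMSO, 5% FBS, harvested on day 3. Replicon RNA measured by multiplex TaqMan RT-PCR with cyclophilin as endogenous control, quantified from standard curves of Ct vs log ng RNA.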

HCV replicon 1AQ30D = assay: Cell-based HCV Replicon Assay B, replicon 1AQ30D
How it was run: (§2)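 Replicon cells seeded in 5% FBS; compounds added 24 h later, then 3 days' incubation. Replicon RNA quantified by real-time RT-PCR with genotype-specific primers/probes (NS5B amplicon for 1b). EC50 = concentration raising CT by 1 over projected baseline.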

HCV replicon 1A = assay: Cell-based HCV Replicon Assay A, replicon 1A
How it was run: as §1

HCV replicon 1B = assay: Cell-based HCV Replicon Assay B, replicon 1B
How it was run: as §2

HCV replicon 1AY93H = assay: Cell-based HCV Replicon Assay A, replicon 1AY93H
How it was run: as §1

[1] = read-out: 1A Q30D IC50, replicon 1AQ30D
[2] = read-out: 1A Y93H IC50, replicon 1AY93H
[3] = Hepatitis C virus, read-out: 2B IC50 (nM), replicon 2B
[4] = Hepatitis C virus, read-out: 1A Q30D IC50 (nM), replicon 1AQ30D
[5] = Hepatitis C virus, read-out: 1A Y93H IC50 (nM), replicon 1AY93H

Row | SMILES | IC50 (HCV replicon 2B; read-out: 2B IC50, replicon 2B) [nM] | IC50 (HCV replicon 1AQ30D; [1]) [nM] | IC50 (HCV replicon 1A; Hepatitis C virus) [pM] | IC50 (HCV replicon 1B; Hepatitis C virus) [pM] | IC50 (HCV replicon 1AY93H; [2]) [nM] | IC50 (HCV replicon 1A) [pM] | IC50 (HCV replicon 1B) [pM] | IC50 (HCV replicon 2B; [3]) [nM] | IC50 (HCV replicon 1AQ30D; [4]) [nM] | IC50 (HCV replicon 1AY93H; [5]) [nM]
1 | CCc1ncc(C2Oc3cc(-c4cnc([C@@H]5CCCN5C(=O)[C@@H](NC(=O)OC)C(C)C)[nH]4)cc(F)c3-c3cc4cc(-c5cnc([C@@H]6C[C@H]7C[C@H]7N6C(=O)[C@@H](NC(=O)OC)C6C[C@@H](C)O[C@@H](C)C6)[nH]5)ccc4n32)s1 (single isomer, unassigned) [Compound 96] | 0.006 | 0.02 | 2.4 | 3 | 0.0037 |  |  |  |  | 
2 | CCc1ncc(C2Oc3cc(-c4cnc([C@@H]5CCCN5C(=O)[C@@H](NC(=O)OC)C(C)C)[nH]4)cc(F)c3-c3cc4cc(-c5cnc([C@@H]6C[C@H]7C[C@H]7N6C(=O)[C@@H](NC(=O)OC)C6C[C@@H](C)O[C@@H](C)C6)[nH]5)ccc4n32)s1 (single isomer, unassigned) [Compound 97] | 0.098 | 0.287 |  |  | 0.0278 | 2.5 | 3 |  |  | 
3 | CCCc1ncc(C2Oc3cc(-c4cnc([C@@H]5CCCN5C(=O)[C@@H](NC(=O)OC)C(C)C)[nH]4)cc(F)c3-c3cc4cc(-c5cnc([C@@H]6C[C@H]7C[C@H]7N6C(=O)C(NC(=O)OC)C6CCOC(C)(C)C6)[nH]5)ccc4n32)s1 (single isomer, unassigned) [Compound 104] | 0.004 | 0.028 | 2.8 | 3 | 0.0041 |  |  |  |  | 
4 | CCCc1ncc(C2Oc3cc(-c4cnc([C@@H]5CCCN5C(=O)[C@@H](NC(=O)OC)C(C)C)[nH]4)cc(F)c3-c3cc4cc(-c5cnc([C@@H]6C[C@H]7C[C@H]7N6C(=O)C(NC(=O)OC)C6CCOC(C)(C)C6)[nH]5)ccc4n32)s1 (single isomer, unassigned) [Compound 106] | 0.067 | 0.284 |  |  | 0.0336 | 3.2 | 5 |  |  | 
5 | CCCc1ncc(C2Oc3cc(-c4cnc([C@@H]5CCCN5C(=O)[C@@H](NC(=O)OC)C(C)C)[nH]4)cc(F)c3-c3cc4cc(-c5cnc([C@@H]6C[C@H]7C[C@H]7N6C(=O)C(NC(=O)OC)C6CCOC(C)(C)C6)[nH]5)ccc4n32)s1 (single isomer, unassigned) [Compound 107] | 0.017 | 0.233 |  |  | 0.0292 | 2.6 | 4 |  |  | 
6 | CCCc1ncc(C2Oc3cc(-c4cnc([C@@H]5CCCN5C(=O)[C@@H](NC(=O)OC)C(C)C)[nH]4)cc(F)c3-c3cc4cc(-c5cnc([C@@H]6C[C@H]7C[C@H]7N6C(=O)C(NC(=O)OC)C6C[C@@H](C)O[C@@H](C)C6)[nH]5)ccc4n32)s1 (single isomer, unassigned) [Compound 108] | 0.007 | 0.016 | 2.8 | 4 | 0.0033 |  |  |  |  | 
7 | CCCc1ncc(C2Oc3cc(-c4cnc([C@@H]5CCCN5C(=O)[C@@H](NC(=O)OC)C(C)C)[nH]4)cc(F)c3-c3cc4cc(-c5cnc([C@@H]6C[C@H]7C[C@H]7N6C(=O)C(NC(=O)OC)C6C[C@@H](C)O[C@@H](C)C6)[nH]5)ccc4n32)s1 (single isomer, unassigned) [Compound 109] | 0.069 | 0.176 |  |  | 0.0303 | 3.4 | 4 |  |  | 
8 | COC(=O)NC(C(=O)N1[C@@H]2C[C@@H]2C[C@H]1c1ncc(-c2ccc3c(c2)cc2n3C(c3cnc(C4CC4)s3)Oc3cc(-c4cnc([C@@H]5CC6CC6N5C(=O)[C@@H](NC(=O)OC)C(C)C)[nH]4)cc(F)c3-2)[nH]1)C1CCOC(C)(C)C1 (single isomer, unassigned) [Compound 110] |  |  | 3.3 | 4 |  |  |  | 0.007 | 0.027 | 0.003
9 | COC(=O)NC(C(=O)N1[C@@H]2C[C@@H]2C[C@H]1c1ncc(-c2ccc3c(c2)c(F)c2n3C(c3cnc(C4CC4)s3)Oc3cc(-c4cnc([C@@H]5CCCN5C(=O)[C@@H](NC(=O)OC)C(C)C)[nH]4)cc(F)c3-2)[nH]1)C1CCOC(C)(C)C1 (single isomer, unassigned) [Compound 112] | 0.004 |  | 1.9 | 3 | 0.0044 |  |  |  | 0.036 | 
10 | COC(=O)N[C@H](C(=O)N1CCC[C@H]1c1ncc(-c2cc(C)c3c(c2)OC(c2cnc(C4CC4)s2)n2c-3cc3cc(-c4cnc([C@@H]5CCCN5C(=O)[C@@H](NC(=O)OC)C(C)C)[nH]4)ccc32)[nH]1)C(C)C (single isomer, unassigned) [Compound 200] |  |  | 4.9 | 3 |  |  |  | 0.014 | 0.961 | 0.0796
11 | COC(=O)N[C@H](C(=O)N1CCC[C@H]1c1ncc(-c2cc(C)c3c(c2)OC(c2cnc(C4CC4)s2)n2c-3cc3cc(-c4cnc([C@@H]5C[C@H]6C[C@H]6N5C(=O)[C@@H](NC(=O)OC)C(C)C)[nH]4)ccc32)[nH]1)C(C)C (single isomer, unassigned) [Compound 203] |  |  | 4.47 | 3 |  |  |  | 0.007 | 0.654 | 0.0166
12 | COC(=O)N[C@H](C(=O)N1CCC[C@H]1c1ncc(-c2cc(C)c3c(c2)OC(c2cnc(C4CCC4)s2)n2c-3cc3cc(-c4cnc([C@@H]5CCCN5C(=O)[C@@H](NC(=O)OC)C(C)C)[nH]4)ccc32)[nH]1)C(C)C (single isomer, unassigned) [Compound 204] |  |  | 4 | 2 |  |  |  | 0.013 | 0.772 | 0.0579
13 | CCCc1ncc(C2Oc3cc(-c4cnc([C@@H]5CCCN5C(=O)[C@@H](NC(=O)OC)C(C)C)[nH]4)cc(C)c3-c3cc4cc(-c5cnc([C@@H]6C[C@H]7C[C@H]7N6C(=O)[C@@H](NC(=O)OC)C(C)C)[nH]5)ccc4n32)s1 (single isomer, unassigned) [Compound 206] | 0.03 |  |  | 4 | 0.023 | 7 |  |  | 0.83 | 
14 | COC(=O)N[C@H](C(=O)N1CCC[C@H]1c1ncc(-c2cc(C)c3c(c2)OC(c2cnc(C4CC4)s2)n2c-3cc3cc(-c4cnc([C@@H]5C[C@H]6C[C@H]6N5C(=O)[C@@H](NC(=O)OC)C(C)(C)F)[nH]4)ccc32)[nH]1)C(C)C (single isomer, unassigned) [Compound 208] | 0.011 |  | 2.8 | 3 | 0.0243 |  |  |  | 0.268 | 
15 | COC(=O)N[C@H](C(=O)N1CCC[C@H]1c1ncc(-c2cc(C)c3c(c2)OC(c2cnc(C4CCC4)s2)n2c-3cc3cc(-c4cnc([C@@H]5C[C@H]6C[C@H]6N5C(=O)[C@@H](NC(=O)OC)C(C)(C)F)[nH]4)ccc32)[nH]1)C(C)C (single isomer, unassigned) [Compound 210] |  |  | 4.9 | 2 |  |  |  | 0.006 | 0.216 | 0.0163
16 | COC(=O)NC(C(=O)N1CCC[C@H]1c1ncc(-c2ccc3c(c2)cc2n3C(c3cnc(C4CC4)s3)Oc3cc(-c4cnc([C@@H]5CCCN5C(=O)[C@@H](NC(=O)OC)C(C)C)[nH]4)cc(C)c3-2)[nH]1)C1C[C@@H](C)O[C@@H](C)C1 (single isomer, unassigned) [Compound 212] |  |  | 6.8 | 8 |  |  |  | 0.007 | 0.499 | 0.0354
17 | COC(=O)NC(C(=O)N1CCC[C@H]1c1ncc(-c2ccc3c(c2)cc2n3C(c3cnc(C4CC4)s3)Oc3cc(-c4cnc([C@@H]5CCCN5C(=O)[C@@H](NC(=O)OC)C(C)C)[nH]4)cc(C)c3-2)[nH]1)C1C[C@@H](C)O[C@H](C)C1 (single isomer, unassigned) [Compound 213] |  |  | 7.8 | 7 |  |  |  | 0.005 | 0.126 | 0.0252
18 | COC(=O)NC(C(=O)N1CCC[C@H]1c1ncc(-c2ccc3c(c2)cc2n3C(c3cnc(C4CC4)s3)Oc3cc(-c4cnc([C@@H]5CCCN5C(=O)[C@@H](NC(=O)OC)C(C)C)[nH]4)cc(C)c3-2)[nH]1)C1CCOC(C)(C)C1 (single isomer, unassigned) [Compound 214] |  |  | 2.7 | 8 |  |  |  | 0.004 | 0.44 | 0.02
19 | COC(=O)NC(C(=O)N1[C@@H]2C[C@@H]2C[C@H]1c1ncc(-c2ccc3c(c2)cc2n3C(c3cnc(C4CC4)s3)Oc3cc(-c4cnc([C@@H]5CCCN5C(=O)[C@@H](NC(=O)OC)C(C)C)[nH]4)cc(C)c3-2)[nH]1)C1C[C@@H](C)O[C@@H](C)C1 (single isomer, unassigned) [Compound 217] | 0.011 |  |  |  | 0.0085 | 3.2 | 5 |  | 0.241 | 
20 | COC(=O)NC(C(=O)N1CCC[C@H]1c1ncc(-c2ccc3c(c2)cc2n3C(c3cnc(C4CCC4)s3)Oc3cc(-c4cnc([C@@H]5CCCN5C(=O)[C@@H](NC(=O)OC)C(C)C)[nH]4)cc(C)c3-2)[nH]1)C1C[C@@H](C)O[C@@H](C)C1 (single isomer, unassigned) [Compound 219] | 0.003 |  |  | 4 | 0.013 | 2.7 |  |  | 0.096 | 
21 | COC(=O)NC(C(=O)N1CCC[C@H]1c1ncc(-c2ccc3c(c2)cc2n3C(c3cnc(C4CCC4)s3)Oc3cc(-c4cnc([C@@H]5CCCN5C(=O)[C@@H](NC(=O)OC)C(C)C)[nH]4)cc(C)c3-2)[nH]1)C1CCOC(C)(C)C1 (single isomer, unassigned) [Compound 221] |  |  | 7 | 8 |  |  |  | 0.006 | 0.39 | 0.06
